EPA's ToxRefDB 2

Experiments:
rabbit = details: Sub-acute dermal toxicity, new zealand white, Topical, dose end: 21 day, group: systemic
rat [1] = details: Prenatal developmental toxicity study, wistar, Oral, Gavage/Intubation, dose end: 15 GD
rat [2] = details: Carcinogenicity, fischer, Oral, Feed, dose end: 103 week, group: systemic
rat [3] = details: Subchronic oral toxicity in rodents, fischer, Feed, dose end: 13 week, group: systemic
mouse [4] = details: Subchronic oral toxicity in rodents, b6c3f1, Feed, dose end: 13 week, group: systemic
mouse [5] = details: Carcinogenicity, b6c3f1, Oral, Feed, dose end: 103 week, group: systemic
mouse [6] = details: Subchronic oral toxicity in rodents, b6c3f1, Water, dose end: 13 week, group: systemic
rat [7] = details: Subchronic oral toxicity in rodents, fischer, Feed, dose end: 13 week, group: systemic; remark: listed apart in the source
mouse [8] = details: Combined chronic toxicity/carcinogenicity; b6c3f1; Oral; Feed; dose end: 2 year; group: systemic; systemic / in life observation / body weight / body weight
mouse [9] = details: Prenatal developmental toxicity study, cd1, Oral, Gavage/Intubation, dose end: 14 GD
rat [10] = details: Combined chronic toxicity/carcinogenicity, fischer, Oral, Feed, dose end: 2 year, group: systemic
rat [11] = details: Prenatal developmental toxicity study, sprague dawley, Oral, Gavage/Intubation, dose end: 15 GD
mouse [12] = details: Subchronic oral toxicity in rodents, b6c3f1, Feed, dose end: 13 week, group: systemic; remark: listed apart in the source
mouse [13] = details: Prenatal developmental toxicity study, cd1, Oral, Gavage/Intubation, dose end: 15 GD
[14] = systemic / in life observation / clinical signs / erythema
[15] = systemic / in life observation / clinical signs / erythema + systemic / in life observation / body weight / body weight + systemic / in life…
[16] = group: developmental, developmental / developmental malformation / eye / anophthalmia + developmental / developmental malformation / eye / microphthalmia + …
[17] = group: maternal, systemic / in life observation / body weight / body weight gain + systemic / in life observation / clinical signs / labored respiration
[18] = group: maternal, systemic / in life observation / body weight / body weight gain + systemic / in life observation / clinical signs / labored respiration + …
[19] = systemic / pathology microscopic / liver / basophilic focus + systemic / pathology microscopic / liver / eosinophilic focus + systemic / …
[20] = systemic / pathology microscopic / liver / hyperplasia + systemic / pathology microscopic / liver / basophilic focus + systemic / pathology …
[21] = systemic / in life observation / body weight / body weight + systemic / pathology microscopic / kidney / pigmentation + systemic / in life …
[22] = systemic / pathology microscopic / kidney / hemosiderosis + systemic / pathology microscopic / liver / hemosiderosis + systemic / pathology …
[23] = systemic / in life observation / body weight / body weight
[24] = systemic / in life observation / body weight / body weight + systemic / in life observation / clinical signs / emaciation + systemic / in …
[25] = systemic / pathology microscopic / nose / degeneration
[26] = systemic / in life observation / body weight / body weight + systemic / in life observation / clinical signs / aggressive behavior + …
[27] = group: developmental, systemic / in life observation / body weight / fetal weight
[28] = group: developmental, systemic / in life observation / body weight / fetal weight + developmental / developmental malformation / mouth / jaw / cleft palate
[29] = group: maternal, systemic / in life observation / body weight / body weight gain
[30] = group: maternal, systemic / in life observation / body weight / body weight gain + systemic / in life observation / body weight / body weight + systemic / in…
[31] = systemic / pathology microscopic / liver / granuloma
[32] = systemic / pathology microscopic / liver / granuloma + systemic / pathology microscopic / pituitary gland / adenoma
[33] = group: developmental, developmental / developmental malformation / kidney / hydronephrosis + developmental / developmental malformation / ureter / hydroureter + …
[34] = group: maternal, systemic / in life observation / body weight / body weight + systemic / in life observation / body weight / body weight gain + systemic / in…
[35] = systemic / in life observation / body weight / body weight + systemic / in life observation / clinical signs / fur (altered appearance) + …
[36] = group: developmental, developmental / developmental malformation / mouth / jaw / cleft palate + systemic / in life observation / body weight / fetal weight
[37] = group: maternal, systemic / in life observation / body weight / body weight gain + systemic / in life observation / body weight / body weight + systemic / …

Compound Cc1cc(O)ccc1Cl [4-Chloro-3-methylphenol] has an LOAEL (rabbit; [14]) of 10 mg/kg/day, an NOAEL (rabbit; [14]) of less than 10 mg/kg/day and an LEL (rabbit; [15]) of 10 mg/kg/day. The NEL (rabbit; [15]) was less than 10 mg/kg/day, the LEL (rat [1]; [16]) was 300 mg/kg/day and the LOAEL (rat [1]; [16]) was 300 mg/kg/day. It also gave an NEL (rat [1]; [16]) of 100 mg/kg/day, an NOAEL (rat [1]; [16]) of 100 mg/kg/day and an LEL (rat [1]; [17]) of 100 mg/kg/day. The LOAEL (rat [1]; [17]) was 100 mg/kg/day, the NEL (rat [1]; [18]) was 30 mg/kg/day and the NOAEL (rat [1]; [18]) was 30 mg/kg/day.
Oc1ccc2ccccc2c1N=Nc1ccccc1 [C.I. Solvent Yellow 14] showed an LOAEL (rat [2]; [19]) of 25 mg/kg/day, an NOAEL (rat [2]; [19]) of 12.5 mg/kg/day and an LEL (rat [2]; [20]) of 12.5 mg/kg/day. It also gave an NEL (rat [2]; [20]) of less than 12.5 mg/kg/day, an NEL (rat [3]; [21]) of 12.5 mg/kg/day and an NOAEL (rat [3]; [21]) of 25 mg/kg/day. It also gave an LOAEL (rat [3]; systemic / in life observation / body weight / body weight + systemic / pathology microscopic / kidney / pigmentation + systemic / pathology…) of 50 mg/kg/day, an LEL (rat [3]; systemic / pathology microscopic / kidney / pigmentation) of 25 mg/kg/day and an LOAEL (mouse [4]; [22]) of 300 mg/kg/day. The NEL (mouse [4]; [22]) was 75 mg/kg/day, the NOAEL (mouse [4]; [22]) was 150 mg/kg/day and the LEL (mouse [4]; systemic / pathology microscopic / spleen / hemosiderosis) was 150 mg/kg/day. It also gave an LEL (mouse [5]; [23]) of 75 mg/kg/day, an LOAEL (mouse [5]; [23]) of 150 mg/kg/day and an NEL (mouse [5]; [23]) of less than 75 mg/kg/day. It also gave an NOAEL (mouse [5]; systemic / in life observation / body weight / body weight + systemic / in life observation / body weight / body weight gain) of 75 mg/kg/day.
In the case of ON=C1CCCCC1 [Cyclohexanone oxime], the LOAEL (mouse [6]; [24]) was greater than 1150 mg/kg/day, the NOAEL (mouse [6]; [24]) was no less than 1150 mg/kg/day and the LEL (mouse [6]; [25]) was 132 mg/kg/day. The NEL (mouse [6]; [25]) was less than 132 mg/kg/day.
CN(C)CCOC(c1ccccc1)c1ccccc1.Cl [Diphenhydramine hydrochloride] showed an LOAEL (rat [7]; [23]) of 31.3 mg/kg/day, an NEL (rat [7]; [26]) of 7.8 mg/kg/day and an NOAEL (rat [7]; [26]) of 15.7 mg/kg/day. The LEL (rat [7]; systemic / pathology microscopic / liver / vacuolization cytoplasmic) was 15.7 mg/kg/day, the LEL (mouse [8]) was 21 mg/kg/day and the LOAEL (mouse [8]) was 46 mg/kg/day. It also gave an NEL (mouse [8]) of less than 21 mg/kg/day, an NOAEL (mouse [8]) of 21 mg/kg/day and an LEL (mouse [9]; [27]) of 80 mg/kg/day. It also gave an NEL (mouse [9]; [27]) of less than 80 mg/kg/day, an LOAEL (mouse [9]; [28]) greater than 200 mg/kg/day and an NOAEL (mouse [9]; [28]) of no less than 200 mg/kg/day. It also gave an LEL (mouse [9]; [29]) of 80 mg/kg/day, an NEL (mouse [9]; [29]) of less than 80 mg/kg/day and an LOAEL (mouse [9]; [30]) greater than 200 mg/kg/day. For the same compound, the NOAEL (mouse [9]; [30]) was no less than 200 mg/kg/day, the LEL (rat [10]; [31]) was 7 mg/kg/day and the NEL (rat [10]; [31]) was less than 7 mg/kg/day. It also gave an LOAEL (rat [10]; [32]) greater than 15 mg/kg/day, an NOAEL (rat [10]; [32]) of no less than 15 mg/kg/day and an LEL (rat [11]; [33]) of 100 mg/kg/day. For the same compound, the LOAEL (rat [11]; [33]) was greater than 100 mg/kg/day, the NEL (rat [11]; [33]) was 50 mg/kg/day and the NOAEL (rat [11]; [33]) was no less than 100 mg/kg/day. It also gave an LEL (rat [11]; [34]) of 100 mg/kg/day, an LOAEL (rat [11]; [34]) greater than 100 mg/kg/day and an NEL (rat [11]; [34]) of 50 mg/kg/day. The NOAEL (rat [11]; [34]) was no less than 100 mg/kg/day, the LOAEL (mouse [12]; [23]) was 93.8 mg/kg/day and the LEL (mouse [12]; [35]) was 93.8 mg/kg/day. For the same compound, the NEL (mouse [12]; [35]) was 47 mg/kg/day, the NOAEL (mouse [12]; [35]) was 47 mg/kg/day and the LEL (mouse [13]; group: developmental, developmental / developmental malformation / mouth / jaw / cleft palate) was 80 mg/kg/day. It also gave an LOAEL (mouse [13]; [36]) greater than 160 mg/kg/day, an NEL (mouse [13]; [36]) of 40 mg/kg/day and an NOAEL (mouse [13]; [36]) of no less than 160 mg/kg/day. It also gave an LEL (mouse [13]; [29]) of 80 mg/kg/day, an LOAEL (mouse [13]; [37]) greater than 160 mg/kg/day and an NEL (mouse [13]; [37]) of 40 mg/kg/day. It also gave an NOAEL (mouse [13]; [37]) of no less than 160 mg/kg/day.
